# Measured values from patent US8597904B2, “Pharmaceutical compositions for the treatment of conditions responsive to proteasome inhibition” (priority 2007, dated 2013).
# Key:
# [1] = system: poly (ADP-ribose) polymerase (PARP); test: Western blot of PARP cleavage in SKOV3 cells; assay type: cell-based, human; details: SKOV3, 20 μM, 24 and 48 hours
# Experimental: The induction of an apoptotic response in cancer cells by the addition of syringolin A was verified by monitoring the cleavage of poly (ADP-ribose) polymerase (PARP), a common response during apoptosis. SK-N-SH cells were cultured in the presence or absence of 20 μM syringolin A for 0, 24 and 48 hours, and cell lysates were then generated as described in Example 4 and probed for the presence of PARP by Western blotting using rabbit polyclonal anti-PARP (#9542) (diluted 1:1000) and the HRP-linked anti-rabbit secondary antibody described in Example 4. The results were representative of four independent experiments. […] The treatment of cells for 48 hours further increased the levels of cleaved PARP, whereas noncleaved PARP disappeared. In a similar manner, syringolin A induced PARP cleavage in SKOV3 cells, but noncleaved PARP was still detected 48 hours after treatment (FIG. 5B).
# Papaya latex papain = target: T1, Papaya latex papain (Carica papaya, UniProt P00784); test: SensoLyte Green Protease Fluorometric Assay, papain inhibition; assay type: biochemical; details: syringolin A up to 500 μM
# T1 construct: Papaya latex papain (Sigma-Aldrich); purchased Sigma-Aldrich; host or cells: papaya latex
# Experimental: To test the specificity of syringolin A inhibition of proteasome activities, bovine pancreas trypsin (Pierce) and Papaya latex papain (Sigma-Aldrich) inhibition assays with syringolin A were performed with the SensoLyte™ Green Protease Fluorometric Assay Kit (AnaSpec., San Jose, Calif., USA) according to the instructions of the manufacturer. Reaction volumes of 100 μl contained an enzyme concentration of 200 ng/ml and various amounts of test inhibitors. Protease activity was monitored at 33° C. in a FluoroCount Microplate Fluorometer (FluoroCount, Packard, Canberra, Australia) using 485 nm excitation and a 550 nm emission filters.
# T1 sequence (P00784 134-345): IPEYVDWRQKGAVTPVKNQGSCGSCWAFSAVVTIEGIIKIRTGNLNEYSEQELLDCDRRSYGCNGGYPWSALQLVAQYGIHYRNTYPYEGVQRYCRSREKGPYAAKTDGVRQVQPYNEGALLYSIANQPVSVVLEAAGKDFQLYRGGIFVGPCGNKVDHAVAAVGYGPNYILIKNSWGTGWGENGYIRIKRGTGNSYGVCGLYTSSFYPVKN
smiles,measurement,setting,value
CC(C)[C@H](NC(=O)N[C@H](C(=O)N[C@H]1/C=C/CCNC(=O)/C=C/[C@H](C(C)C)NC1=O)C(C)C)C(=O)O [syringolin A],PARP cleavage,[1],induces apoptosis-associated PARP cleavage
same,papain activity,Papaya latex papain,not affected
